Test results published in PMC7413254 (Nature Communications, 2020).

What was measured:
[1] = tested on: non-expressing oocytes; assay: cells; type: cell-based, Xenopus laevis; conditions: total [3H]CQ transport; for Uptake of [3H]CQ (% non-expressing oocyte control), cis-inhibition: non-expressing oocytes, normalised to the oocyte type control; for Uptake of [3H]CQ (% PfCRTDd2 control), cis-inhibition, non-expressing oocytes: mean ± SEM, SEM
In short: (§1)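 Assay buffer ND96 (10 mM MES, 10 mM Tris-base) held at pH 5.5 to mimic vacuole lumen; uptake measured inward from this acidic medium over 1.5 h at 27.5 °C.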

[2] = biological target: PfCRT^Dd2 (Plasmodium falciparum, UniProt Q9N623, A220S/I356T/K76T/M74I/N326S/N75E/Q271E/R371I); assay: [3H]CQ uptake into Xenopus oocytes, cis-inhibition by unlabelled solute; type: cell-based; conditions: for Uptake of [3H]CQ (% PfCRTDd2 control), cis-inhibition / PfCRT-mediated [3H]CQ transport, cis-inhibition (% PfCRTDd2 control): PfCRTDd2 oocytes; for Uptake of [3H]CQ (% PfCRTDd2 control), cis-inhibition / Uptake of [3H]CQ (% PfCRTDd2 control), cis-inhibition, PfCRTDd2: total [3H]CQ transport; for Uptake of [3H]CQ (% PfCRTDd2 control), cis-inhibition: normalised to the oocyte type control; for PfCRT-mediated [3H]CQ transport, cis-inhibition (% PfCRTDd2 control): background [3H]CQ accumulation subtracted, normalised to oocyte type control; for Uptake of [3H]CQ (% PfCRTDd2 control), cis-inhibition, PfCRTDd2: mean ± SEM, SEM
In short: as §1

[3] = biological target: PfCRT^Ecu1110 (Plasmodium falciparum, UniProt Q9N623, A220S/I356L/K76T/N326D); assay: as above; type: cell-based; conditions: for Uptake of [3H]CQ (% PfCRTEcu1110 control), cis-inhibition / PfCRT-mediated [3H]CQ transport, cis-inhibition (% PfCRTEcu1110 control): PfCRTEcu1110 oocytes; for Uptake of [3H]CQ (% PfCRTEcu1110 control), cis-inhibition / Uptake of [3H]CQ (% PfCRTDd2 control), cis-inhibition, PfCRTEcu1110: total [3H]CQ transport; for Uptake of [3H]CQ (% PfCRTEcu1110 control), cis-inhibition: normalised to the oocyte type control; for PfCRT-mediated [3H]CQ transport, cis-inhibition (% PfCRTEcu1110 control): background [3H]CQ accumulation subtracted, normalised to oocyte type control; for [3H]CQ transport (% PfCRTEcu1110 control), cis-inhibition, PfCRTEcu1110: PfCRT-mediated component (background subtracted), sheet title says normalised to PfCRTDd2 control; for [3H]CQ transport (% PfCRTEcu1110 control), cis-inhibition, PfCRTEcu1110 / Uptake of [3H]CQ (% PfCRTDd2 control), cis-inhibition, PfCRTEcu1110: mean ± SEM, SEM
In short: as §1

[4] = biological target: PfCRT^3D7 (Plasmodium falciparum, UniProt Q8IBZ9); assay: cell-based; type: cell-based; conditions: total [3H]CQ transport; for Uptake of [3H]CQ (% PfCRT3D7 control), cis-inhibition: PfCRT3D7 oocytes, normalised to the oocyte type control; for Uptake of [3H]CQ (% PfCRTDd2 control), cis-inhibition, PfCRT3D7: mean ± SEM, SEM
In short: as §1

Sequence of PfCRT^Dd2 (Q9N623 whole entry A220S/I356T/K76T/M74I/N326S/N75E/Q271E/R371I): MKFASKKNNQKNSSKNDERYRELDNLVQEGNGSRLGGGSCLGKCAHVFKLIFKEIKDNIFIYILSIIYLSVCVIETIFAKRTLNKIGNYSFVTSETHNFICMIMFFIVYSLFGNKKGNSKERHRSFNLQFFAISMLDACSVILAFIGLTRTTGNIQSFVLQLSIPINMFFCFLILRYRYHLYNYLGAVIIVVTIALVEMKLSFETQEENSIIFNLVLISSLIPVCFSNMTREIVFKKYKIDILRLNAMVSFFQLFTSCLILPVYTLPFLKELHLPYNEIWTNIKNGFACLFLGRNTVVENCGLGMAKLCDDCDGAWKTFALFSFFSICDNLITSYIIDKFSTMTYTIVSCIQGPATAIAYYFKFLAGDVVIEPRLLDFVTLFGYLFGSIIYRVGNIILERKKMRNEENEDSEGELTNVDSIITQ
Sequence of PfCRT^3D7 (Q8IBZ9 59-398): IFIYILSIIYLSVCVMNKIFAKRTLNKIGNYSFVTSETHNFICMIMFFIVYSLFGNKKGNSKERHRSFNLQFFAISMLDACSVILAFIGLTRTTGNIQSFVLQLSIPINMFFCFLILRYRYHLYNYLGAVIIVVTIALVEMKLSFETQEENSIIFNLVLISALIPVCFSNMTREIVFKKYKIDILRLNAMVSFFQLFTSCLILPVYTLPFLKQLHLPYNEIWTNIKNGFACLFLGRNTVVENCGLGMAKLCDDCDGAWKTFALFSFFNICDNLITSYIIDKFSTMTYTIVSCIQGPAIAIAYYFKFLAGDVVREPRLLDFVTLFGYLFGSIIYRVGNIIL
Sequence of PfCRT^Ecu1110 (Q9N623 whole entry A220S/I356L/K76T/N326D): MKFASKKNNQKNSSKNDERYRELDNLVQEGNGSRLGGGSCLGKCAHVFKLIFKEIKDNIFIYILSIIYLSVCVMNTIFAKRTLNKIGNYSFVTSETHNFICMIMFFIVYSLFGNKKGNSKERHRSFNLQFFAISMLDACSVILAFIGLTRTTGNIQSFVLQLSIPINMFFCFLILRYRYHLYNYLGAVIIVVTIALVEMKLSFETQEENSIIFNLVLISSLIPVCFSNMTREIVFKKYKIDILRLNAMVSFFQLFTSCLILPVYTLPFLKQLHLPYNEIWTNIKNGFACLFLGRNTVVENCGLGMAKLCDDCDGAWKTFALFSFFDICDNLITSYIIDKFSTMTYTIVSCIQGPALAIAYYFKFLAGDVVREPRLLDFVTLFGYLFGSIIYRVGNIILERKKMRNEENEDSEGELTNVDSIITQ

## NC(=O)C[C@H](N)C(=O)O [L-asparagine]
[1]; [test solute] = 0.5 mM
  Uptake of [3H]CQ (% non-expressing oocyte control), cis-inhibition: 100 ± 5.6 % non-expressing oocyte control
  Uptake of [3H]CQ (% PfCRTDd2 control), cis-inhibition, non-expressing oocytes: 3.9 ± 0.02 % PfCRTDd2 control
[1]; [test solute] = 1 mM
  Uptake of [3H]CQ (% non-expressing oocyte control), cis-inhibition: 98 ± 5.3 % non-expressing oocyte control
  Uptake of [3H]CQ (% PfCRTDd2 control), cis-inhibition, non-expressing oocytes: 2.8 ± 0.04 % PfCRTDd2 control
[1]; [test solute] = 2 mM
  Uptake of [3H]CQ (% non-expressing oocyte control), cis-inhibition: 100 ± 4.6 % non-expressing oocyte control
  Uptake of [3H]CQ (% PfCRTDd2 control), cis-inhibition, non-expressing oocytes: 2.5 ± 0.05 % PfCRTDd2 control
[2]; [test solute] = 0.5 mM
  Uptake of [3H]CQ (% PfCRTDd2 control), cis-inhibition: 100 ± 5.3 % PfCRTDd2 control
  PfCRT-mediated [3H]CQ transport, cis-inhibition (% PfCRTDd2 control): 98 ± 4.1 % PfCRTDd2 control
  Uptake of [3H]CQ (% PfCRTDd2 control), cis-inhibition, PfCRTDd2: 100 ± 5.3 % PfCRTDd2 control
[2]; [test solute] = 2 mM
  Uptake of [3H]CQ (% PfCRTDd2 control), cis-inhibition: 100 ± 8.5 % PfCRTDd2 control
  PfCRT-mediated [3H]CQ transport, cis-inhibition (% PfCRTDd2 control): 95 ± 3.5 % PfCRTDd2 control
  Uptake of [3H]CQ (% PfCRTDd2 control), cis-inhibition, PfCRTDd2: 100 ± 8.5 % PfCRTDd2 control
[2]; [test solute] = 1 mM
  PfCRT-mediated [3H]CQ transport, cis-inhibition (% PfCRTDd2 control): 99 ± 6.2 % PfCRTDd2 control
  Uptake of [3H]CQ (% PfCRTDd2 control), cis-inhibition, PfCRTDd2: 101 ± 8.1 % PfCRTDd2 control
[3]; [test solute] = 0.5 mM
  Uptake of [3H]CQ (% PfCRTEcu1110 control), cis-inhibition: 96 ± 6.6 % PfCRTEcu1110 control
  PfCRT-mediated [3H]CQ transport, cis-inhibition (% PfCRTEcu1110 control): 94 ± 3.6 % PfCRTEcu1110 control
  Uptake of [3H]CQ (% PfCRTDd2 control), cis-inhibition, PfCRTEcu1110: 31 ± 1.5 % PfCRTDd2 control
[3]; [test solute] = 1 mM
  Uptake of [3H]CQ (% PfCRTEcu1110 control), cis-inhibition: 88 ± 6.1 % PfCRTEcu1110 control
  PfCRT-mediated [3H]CQ transport, cis-inhibition (% PfCRTEcu1110 control): 84 ± 4.9 % PfCRTEcu1110 control
  [3H]CQ transport (% PfCRTEcu1110 control), cis-inhibition, PfCRTEcu1110: 25 ± 0.6 % PfCRTEcu1110 control
  Uptake of [3H]CQ (% PfCRTDd2 control), cis-inhibition, PfCRTEcu1110: 28 ± 1.8 % PfCRTDd2 control
[3]; [test solute] = 2 mM
  Uptake of [3H]CQ (% PfCRTEcu1110 control), cis-inhibition: 102 ± 6.2 % PfCRTEcu1110 control
  PfCRT-mediated [3H]CQ transport, cis-inhibition (% PfCRTEcu1110 control): 100 ± 5.1 % PfCRTEcu1110 control
  [3H]CQ transport (% PfCRTEcu1110 control), cis-inhibition, PfCRTEcu1110: 30 ± 0.2 % PfCRTEcu1110 control
  Uptake of [3H]CQ (% PfCRTDd2 control), cis-inhibition, PfCRTEcu1110: 33 ± 2.2 % PfCRTDd2 control
[4]; [test solute] = 0.5 mM
  Uptake of [3H]CQ (% PfCRT3D7 control), cis-inhibition: 98 ± 2.4 % PfCRT3D7 control
  Uptake of [3H]CQ (% PfCRTDd2 control), cis-inhibition, PfCRT3D7: 2.6 ± 0.04 % PfCRTDd2 control
[4]; [test solute] = 1 mM
  Uptake of [3H]CQ (% PfCRT3D7 control), cis-inhibition: 98 ± 3.5 % PfCRT3D7 control
  Uptake of [3H]CQ (% PfCRTDd2 control), cis-inhibition, PfCRT3D7: 2.2 ± 0.03 % PfCRTDd2 control
[4]; [test solute] = 2 mM
  Uptake of [3H]CQ (% PfCRT3D7 control), cis-inhibition: 101 ± 4.7 % PfCRT3D7 control
  Uptake of [3H]CQ (% PfCRTDd2 control), cis-inhibition, PfCRT3D7: 3.4 ± 0.07 % PfCRTDd2 control
